Assay results published in ChEMBL document CHEMBL5442663, “ASAP - Solubility” (2024).
In brackets after ≈: the same amount, converted by molar mass.

Assay: Kinetic solubility of compound by measuring concentration at pH 7.4 in saturated PBS buffer by UV LCMS/MS using calibration curves. The assay has been performed by Enamine biological services, Bienta Ltd.The protocol is publicly available: dx.doi.org/10.17504/protocols.io.j8nlk8y41l5r/v1
Type: physicochemical
Conditions: PBS buffer

**Q.** For CC(C)[C@@H](Nc1ncnc2[nH]c(C(=O)N[C@H]3CCN(C)C3)cc12)c1ccc2c(c1)S(=O)(=O)CCC2, which solubility kinetic is on record?
**A.** Its solubility kinetic is 392 µM (≈ 195 µg/mL).

**Q.** With CCNC(=O)c1cc2c(N[C@@H](c3ccc4c(c3)S(=O)(=O)CCO4)C(C)C)ncnc2[nH]1 as the compound, how does the solubility kinetic read?
**A.** Its solubility kinetic is 328 µM (≈ 145 µg/mL).

**Q.** Which solubility kinetic does the source give for Cc1nn(C)cc1-c1cc2c(N[C@@H](c3ccc4c(c3)S(=O)(=O)CCC4)C(C)C)ncnc2[nH]1 here?
**A.** Its solubility kinetic is 63 µM (≈ 29.3 µg/mL).

**Q.** With CNC(=O)c1cccc(-c2cc3c(N[C@@H](c4ccc5c(c4)S(=O)(=O)CCC5)C(C)C)ncnc3[nH]2)c1 as the compound, how does the solubility kinetic read?
**A.** The solubility kinetic was 15 µM (≈ 7.55 µg/mL).

**Q.** Which solubility kinetic does the source give for CC(C)[C@H](Nc1ncnc2[nH]c(-c3cnn(CC(N)=O)c3)cc12)c1ccc2c(c1)S(=O)(=O)CCC2 here?
**A.** The solubility kinetic was 338 µM (≈ 167 µg/mL).

**Q.** Which solubility kinetic does the source give for Cc1nn(C)cc1-c1cc2c(N[C@H](c3ccc4c(c3)S(=O)(=O)CCC4)C(C)C)ncnc2[nH]1 here?
**A.** Its solubility kinetic is 65 µM (≈ 30.2 µg/mL).

**Q.** For COc1ccc([C@H](Cc2nnn[nH]2)NC(=O)c2ncnc3[nH]ccc23)cc1, which solubility kinetic is on record?
**A.** Its solubility kinetic is 367 µM (≈ 134 µg/mL).

**Q.** Which solubility kinetic does the source give for CC(C)(C)[C@H](Nc1ncnc2[nH]c(-c3cnn(CC(N)=O)c3)cc12)c1ccc2c(c1)OCCO2 here?
**A.** Its solubility kinetic is 89 µM (≈ 41.1 µg/mL).

**Q.** For CNCc1cc(-c2cc3c(N[C@@H](c4ccc5c(c4)S(=O)(=O)NCC5)C(C)C)ncnc3[nH]2)co1, which solubility kinetic is on record?
**A.** Its solubility kinetic is 372 µM (≈ 179 µg/mL).

**Q.** Which solubility kinetic does the source give for CC(C)[C@@H](Nc1ncnc2[nH]ccc12)c1ccc2c(c1)S(=O)(=O)CCO2 here?
**A.** The solubility kinetic was 372 µM (≈ 139 µg/mL).

**Q.** With C[C@H](C(=O)O)[C@@H](NC(=O)c1ncnc2[nH]ccc12)c1ccc(Br)cc1 as the compound, how does the solubility kinetic read?
**A.** Its solubility kinetic is 358 µM (≈ 144 µg/mL).

**Q.** With CC(C)[C@H](Nc1ncnc2[nH]c(-c3cnn(C)c3C#N)cc12)c1ccc2c(c1)NC(=O)CO2 as the compound, how does the solubility kinetic read?
**A.** The solubility kinetic was 26 µM (≈ 11.5 µg/mL).

**Q.** For CC(C)[C@H](Nc1ncnc2[nH]c(-c3cnn(C)c3)cc12)c1ccc2c(c1)S(=O)(=O)CCC2, which solubility kinetic is on record?
**A.** The solubility kinetic was 111 µM (≈ 50 µg/mL).

**Q.** With CC(C)[C@@H](Nc1ncnc2[nH]c(-c3ccc4cncn4c3)cc12)c1ccc2c(c1)S(=O)(=O)CCC2 as the compound, how does the solubility kinetic read?
**A.** The solubility kinetic was 14 µM (≈ 6.81 µg/mL).

**Q.** For CC(C)[C@@H](Nc1ncnc2[nH]c(-c3cncc(S(C)(=O)=O)c3)cc12)c1ccc2c(c1)S(=O)(=O)CCC2, which solubility kinetic is on record?
**A.** Its solubility kinetic is 31 µM (≈ 16.3 µg/mL).

**Q.** For CNC(=O)c1cccc(-c2cc3c(N[C@H](c4ccc5c(c4)S(=O)(=O)CCC5)C(C)C)ncnc3[nH]2)c1, which solubility kinetic is on record?
**A.** The solubility kinetic was 13 µM (≈ 6.55 µg/mL).

**Q.** For CCNC(=O)c1cc2c(N[C@H](c3ccc4c(c3)OCCO4)C(C)C)ncnc2[nH]1, which solubility kinetic is on record?
**A.** Its solubility kinetic is 263 µM (≈ 104 µg/mL).

**Q.** For CNC(=O)c1cc2c(N[C@H](c3ccc4c(c3)S(=O)(=O)CCC4)C(C)C)ncnc2[nH]1, which solubility kinetic is on record?
**A.** Its solubility kinetic is 374 µM (≈ 160 µg/mL).

**Q.** Which solubility kinetic does the source give for CC(C)[C@H](Nc1ncnc2[nH]c(-c3cnn(CC(N)=O)c3)cc12)c1ccc2c(n1)OCCO2 here?
**A.** Its solubility kinetic is 377 µM (≈ 169 µg/mL).

**Q.** Which solubility kinetic does the source give for CC(C)[C@H](Nc1ncnc2[nH]c(-c3cnn(CC(=O)N(C)C)c3)cc12)c1ccc2c(c1)OCCO2 here?
**A.** The solubility kinetic was 19 µM (≈ 9.04 µg/mL).

**Q.** For CC(C)[C@H](Nc1ncnc2[nH]c(C(=O)N[C@H]3CCN(C)C3)cc12)c1ccc2c(c1)S(=O)(=O)CCC2, which solubility kinetic is on record?
**A.** The solubility kinetic was 396 µM (≈ 197 µg/mL).

**Q.** With CC(C)[C@H](Nc1ncnc2[nH]cc(C(=O)NC3CC3)c12)c1ccc2c(c1)S(=O)(=O)CCC2 as the compound, how does the solubility kinetic read?
**A.** The solubility kinetic was 19 µM (≈ 8.62 µg/mL).

**Q.** Which solubility kinetic does the source give for CC(C)[C@H](Nc1ncnc2[nH]c(-c3cnn(CC(=O)N(C)C)c3)cc12)c1ccc2c(c1)S(=O)(=O)CCC2 here?
**A.** The solubility kinetic was 361 µM (≈ 188 µg/mL).

**Q.** With CCNC(=O)c1cc2c(N[C@H](c3ccc4c(c3)S(=O)(=O)CCC4)C(C)C)ncnc2[nH]1 as the compound, how does the solubility kinetic read?
**A.** The solubility kinetic was 337 µM (≈ 149 µg/mL).
